Data as given in patent US20240277698A1, “METHODS OF USING ALDOSTERONE SYNTHASE INHIBITORS” (CINCOR PHARMA, INC., priority 2021, published 2024).

Target: T1, aldosterone synthase (Homo sapiens, UniProt P19099)
T1 construct: synthesized in the adrenal cortex by aldosterone synthase; endogenous in cells; host or cells: adrenal cortex of healthy human subjects (in vivo, oral dosing)
T1 sequence (P19099 25-503): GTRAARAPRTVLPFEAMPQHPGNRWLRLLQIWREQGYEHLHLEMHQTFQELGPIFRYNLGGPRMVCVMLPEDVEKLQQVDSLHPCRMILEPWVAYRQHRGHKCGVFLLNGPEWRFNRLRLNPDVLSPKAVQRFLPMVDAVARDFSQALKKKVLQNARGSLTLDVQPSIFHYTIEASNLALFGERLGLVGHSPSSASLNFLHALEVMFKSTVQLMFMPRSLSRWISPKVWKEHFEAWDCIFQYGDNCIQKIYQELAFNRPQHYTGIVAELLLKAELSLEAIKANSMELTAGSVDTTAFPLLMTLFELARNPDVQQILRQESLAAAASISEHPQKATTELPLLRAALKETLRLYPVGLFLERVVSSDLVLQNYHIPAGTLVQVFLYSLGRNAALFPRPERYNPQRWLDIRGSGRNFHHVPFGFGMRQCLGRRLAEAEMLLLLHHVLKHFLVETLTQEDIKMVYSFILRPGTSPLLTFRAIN
Assay: SAD study: plasma and urine aldosterone and precursors (Cortrosyn challenge, standing, normal and low salt diet)
Format: in vivo
Settings: normal salt diet, low salt diet conditions
Procedure: Single doses of (R)-compound 1 reduced plasma and urine aldosterone levels by approximately 85% to 90% in a dose-dependent manner, consistently reaching a maximum effect at a dose of 10 mg (R)-compound 1 under the different conditions tested (Cortrosyn® challenge, standing, normal salt diet, and low salt diet conditions). No change in plasma cortisol levels was apparent across the full dose range tested (0 to 360 mg (R)-compound 1).
A maximum effect on aldosterone reduction was consistently achieved at a dose of 10 mg under the different conditions tested in healthy subjects (Cortrosyn® challenge, standing, normal salt diet, and low salt diet conditions). No change in plasma cortisol levels after the Cortrosyn challenge was apparent across the full dose range tested (0 to 360 mg of (R)-compound 1).
(R)-compound 1 induced a dose-dependent blunting of plasma aldosterone levels as compared to Day −1 baseline and as compared to placebo, with a maximum effect achieved at the 10 mg dose level (approximate 85% to 90% decrease as compared to Day −1). This effect was observed both on the post-Cortrosyn challenge readout (time interval 0 to 4 hours), and on the standing aldosterone peak (time interval 4 to 12 hours) (See FIG. 10).
Notes: Plasma aldosterone levels that were Below limit of quantification were set to the lower limit of quantitation value (5 pg/mL) to allow further calculation. […]

## CCC(=O)N[C@@H]1CCCc2c(-c3ccc4c(c3)CCC(=O)N4C)cncc21 [(R)-Compound 1, (R)—N-(4-(1-methyl-2-oxo-1,2,3,4-tetrahydroquinolin-6-yl)-5,6,7,8-tetrahydroisoquinolin-8-yl)propionamide]
  dose at which maximum effect on aldosterone reduction reached: 10 mg
